# Entries after “also recorded” stand apart in the source; their conditions may differ. Where two headings read alike, the source gives them in different places.
# How the values were obtained:
# [1] = system: Wuhan-like SARS-CoV-2 strain; experiment: microbe, parasite or virus in culture; assay type: cell-based
# main protease (NSP5) = settings: 2024, cited from earlier work
# [2] = target: RNA-dependent RNA polymerase (NSP12); parameters: method as in Su et al., 2021; Pan et al., 2023; Kuzikov et al., 2024; settings: ref Su et al., 2021; Pan et al., 2023; Kuzikov et al., 2024; cited from earlier work
# spike protein = settings: read-out: Kd, spike protein; ref Su et al., 2021; Pan et al., 2023; Kuzikov et al., 2024; cited from earlier work
compound,measurement,setting,value
"O=C(/C=C/c1ccc(O)c(O)c1)O[C@@H]1C[C@](O)(C(=O)O)C[C@@H](O)[C@H]1O [Chlorogenic acid, (1S,3R,4R,5R)-3-[(E)-3-(3,4-Dihydroxyphenyl)prop-2-enoyl]oxy-1,4,5-trihydroxycyclohexane-1-carboxylic acid]","IC50, infection assay (percentage of infected cells)","[1]; Vero E6 cells, MOI 0.3, 48 h, compound 1 h before infection",no significant effect; also recorded: no significant inhibition
"O=c1nc(NO)ccn1[C@@H]1O[C@H](CO)[C@@H](O)[C@H]1O [NHC, β-D-N4-hydroxycytidine, reference compound]",IC50,"[1]; Vero E6 cells, MOI 0.3, 48 h, compound 1 h before infection, read-out: IC50, infection assay (percentage of infected cells)",0.745 µM
"O=C(/C=C/c1ccc(O)c(O)c1)O[C@H](Cc1ccc(O)c(O)c1)C(=O)O [Rosmarinic acid, (2R)-3-(3,4-Dihydroxyphenyl)-2-[(E)-3-(3,4-dihydroxyphenyl)prop-2-enoyl]oxypropanoic acid]",IC50,"main protease (NSP5); noncovalent binding to active site, ref Li et al., read-out: IC50, NSP5",2180 nM
same,IC50,"[1]; Severe acute respiratory syndrome coronavirus 2, Vero C1008, read-out: IC50, infection assay (percentage of infected cells)",59.3 µM
"O=c1c(O)c(-c2cc(O)c(O)c(O)c2)oc2cc(O)cc(O)c12 [Myricetin, 3,5,7-Trihydroxy-2-(3,4,5-trihydroxyphenyl)chromen-4-one]",IC50,"main protease (NSP5); ref Su et al., 2021, Pan et al., 2023, Kuzikov et al., read-out: IC50, main protease (NSP5)",630 nM
same,IC50,[2],860 nM
same,Kd,spike protein,2670 nM
